# In ChEMBL document CHEMBL2150926 (J Med Chem, 2011):
# What was measured:
# Rattus norvegicus [1] = assay: AUC (0 to 24 hrs) in Wistar rat at 30 mg/kg, po administered as single dose; assay type: ADME, organism-based, Plasma; set-up: time < 24 hr, dose 30 mg/kg, route oral; conditions: in vivo
# [2] = molecular target: Protein kinase C beta type (Homo sapiens, UniProt P05771); assay: Inhibition of PKCbeta-1 by scintillation proximity assay
# [3] = Immunosuppressive activity in human lymphocytes assessed as alloantigen-induced T cell proliferation by mixed lymphocyte reaction assay; assay type: functional, cell-based
# [4] = Total plasma clearance in OFA rat at 5 mg/kg, iv; assay type: ADME, organism-based; set-up: dose 5 mg/kg, route intravenous
# [5] = Immunosuppressive activity in mouse lymphocytes assessed as alloantigen-induced T cell proliferation by mixed lymphocyte reaction assay; assay type: functional, cell-based
# Rattus norvegicus [6] = assay: Dose normalized AUC (0 to infinity) in OFA rat 20 mg/kg, po; assay type: ADME, organism-based; set-up: dose 20 mg/kg, route oral; conditions: in vivo
# [7] = molecular target: T1, Protein kinase C epsilon type (Homo sapiens, UniProt Q02156); assay: Inhibition of PKCepsilon by scintillation proximity assay
# T1 sequence (Q02156 whole entry): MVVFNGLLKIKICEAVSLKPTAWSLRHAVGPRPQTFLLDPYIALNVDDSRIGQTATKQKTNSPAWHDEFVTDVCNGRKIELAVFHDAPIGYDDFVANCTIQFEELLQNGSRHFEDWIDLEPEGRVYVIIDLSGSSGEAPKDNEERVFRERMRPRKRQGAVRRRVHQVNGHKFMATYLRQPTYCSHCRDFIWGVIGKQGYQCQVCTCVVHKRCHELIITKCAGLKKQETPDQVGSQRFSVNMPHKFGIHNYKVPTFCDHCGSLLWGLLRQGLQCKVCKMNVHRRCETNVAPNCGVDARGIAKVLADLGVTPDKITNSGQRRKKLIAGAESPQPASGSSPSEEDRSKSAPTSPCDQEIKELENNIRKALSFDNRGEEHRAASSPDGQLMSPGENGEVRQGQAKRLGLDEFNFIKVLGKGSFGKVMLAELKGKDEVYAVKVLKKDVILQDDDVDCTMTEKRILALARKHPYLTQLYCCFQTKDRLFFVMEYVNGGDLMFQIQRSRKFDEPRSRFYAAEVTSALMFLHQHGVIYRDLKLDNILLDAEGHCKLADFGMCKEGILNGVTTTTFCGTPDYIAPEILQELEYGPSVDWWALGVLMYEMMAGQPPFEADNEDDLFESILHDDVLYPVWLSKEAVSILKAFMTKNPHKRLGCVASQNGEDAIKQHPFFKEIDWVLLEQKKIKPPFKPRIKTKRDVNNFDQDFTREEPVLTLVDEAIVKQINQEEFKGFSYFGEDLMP
# [8] = Volume of distribution at steady state in OFA rat at 5 mg/kg, iv; assay type: ADME, organism-based; set-up: dose 5 mg/kg, route intravenous; conditions: in vivo, read-out: Vdss
# [9] = molecular target: Protein kinase C alpha type (Homo sapiens, UniProt P17252); assay: Inhibition of PKCalpha by scintillation proximity assay
# [10] = Octanol-water partition coefficient, log P of the compound; assay type: physicochemical
# [11] = Intrinsic solubility of the compound at pH 6.8; assay type: physicochemical; conditions: buffer, read-out: Intrinsic_solubility
# P-gp (human) = assay: Efflux ratio of permeability from basolateral to apical to apical to basolateral in MDCK cells transfected with human p-gp gene; assay type: ADME, cell-based, Canis lupus familiaris; conditions: dog, MDCK-MDR1
# Rattus norvegicus [12] = assay: Dose normalized AUC (0 to infinity) in OFA rat at 5 mg/kg, iv; assay type: ADME, organism-based; set-up: dose 5 mg/kg, route intravenous; conditions: in vivo
# [13] = molecular target: Protein kinase C eta type (Homo sapiens, UniProt P24723); assay: Inhibition of PKCeta by scintillation proximity assay
# Chain of Protein kinase C eta type (P24723 whole entry): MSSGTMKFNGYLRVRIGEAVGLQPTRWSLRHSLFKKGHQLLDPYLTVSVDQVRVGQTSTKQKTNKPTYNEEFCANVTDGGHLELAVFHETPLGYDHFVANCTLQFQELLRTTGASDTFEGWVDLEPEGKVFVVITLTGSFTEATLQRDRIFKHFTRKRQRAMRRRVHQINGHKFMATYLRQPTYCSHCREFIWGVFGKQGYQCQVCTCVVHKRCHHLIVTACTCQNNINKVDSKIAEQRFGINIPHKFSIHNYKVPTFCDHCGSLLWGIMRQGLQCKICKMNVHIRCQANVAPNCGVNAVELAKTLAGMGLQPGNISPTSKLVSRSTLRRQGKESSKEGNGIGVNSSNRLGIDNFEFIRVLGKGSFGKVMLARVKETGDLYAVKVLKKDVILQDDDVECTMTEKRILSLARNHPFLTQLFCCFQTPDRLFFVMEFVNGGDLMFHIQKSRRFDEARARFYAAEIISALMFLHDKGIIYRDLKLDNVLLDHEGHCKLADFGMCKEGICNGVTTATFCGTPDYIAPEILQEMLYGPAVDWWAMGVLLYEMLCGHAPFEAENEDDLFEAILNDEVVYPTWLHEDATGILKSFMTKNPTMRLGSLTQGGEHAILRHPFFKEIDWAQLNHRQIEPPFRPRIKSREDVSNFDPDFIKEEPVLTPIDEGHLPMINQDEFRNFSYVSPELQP
# [14] = Oral bioavailability in OFA rat at 20 mg/kg; assay type: ADME, organism-based; conditions: in vivo
# [15] = Intrinsic clearance in OFA rat liver microsomes at 20 mg/kg, po; assay type: ADME, Microsome; set-up: dose 20 mg/kg, route oral; conditions: read-out: CLH
# [16] = Tmax in OFA rat at 20 mg/kg, po; assay type: ADME, organism-based; set-up: dose 20 mg/kg, route oral; conditions: in vivo
# [17] = molecular target: Protein kinase C delta type (Homo sapiens, UniProt Q05655); assay: Inhibition of PKCdelta by scintillation proximity assay
# Chain of Protein kinase C delta type (Q05655 whole entry): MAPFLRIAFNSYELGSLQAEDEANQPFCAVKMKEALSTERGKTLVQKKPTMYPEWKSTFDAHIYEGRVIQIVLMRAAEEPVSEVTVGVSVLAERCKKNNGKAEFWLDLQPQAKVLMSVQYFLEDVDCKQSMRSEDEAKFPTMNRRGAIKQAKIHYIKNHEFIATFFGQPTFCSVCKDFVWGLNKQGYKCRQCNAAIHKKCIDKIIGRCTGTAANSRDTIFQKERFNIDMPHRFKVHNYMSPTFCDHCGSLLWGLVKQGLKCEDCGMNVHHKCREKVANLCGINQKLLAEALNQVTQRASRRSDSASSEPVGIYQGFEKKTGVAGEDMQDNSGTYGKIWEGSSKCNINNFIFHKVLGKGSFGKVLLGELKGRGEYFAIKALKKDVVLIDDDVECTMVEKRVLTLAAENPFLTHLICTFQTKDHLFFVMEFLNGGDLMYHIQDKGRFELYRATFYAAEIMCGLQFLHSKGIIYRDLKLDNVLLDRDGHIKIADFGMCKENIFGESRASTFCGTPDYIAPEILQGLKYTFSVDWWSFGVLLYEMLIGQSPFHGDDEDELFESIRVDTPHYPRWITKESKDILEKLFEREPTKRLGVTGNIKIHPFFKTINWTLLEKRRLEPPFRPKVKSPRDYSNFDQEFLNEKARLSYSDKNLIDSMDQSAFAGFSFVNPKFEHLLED
# [18] = Lipophilicity, log D of the compound at pH 6.8; assay type: physicochemical; conditions: buffer
# [19] = Elimination half life in OFA rat at 5 mg/kg, iv; assay type: ADME, organism-based; set-up: dose 5 mg/kg, route intravenous; conditions: in vivo, read-out: beta t1/2 (converted)
# [20] = molecular target: Protein kinase C theta type (Homo sapiens, UniProt Q04759); assay: Inhibition of PKCtheta by scintillation proximity assay
# Chain of Protein kinase C theta type (Q04759 whole entry): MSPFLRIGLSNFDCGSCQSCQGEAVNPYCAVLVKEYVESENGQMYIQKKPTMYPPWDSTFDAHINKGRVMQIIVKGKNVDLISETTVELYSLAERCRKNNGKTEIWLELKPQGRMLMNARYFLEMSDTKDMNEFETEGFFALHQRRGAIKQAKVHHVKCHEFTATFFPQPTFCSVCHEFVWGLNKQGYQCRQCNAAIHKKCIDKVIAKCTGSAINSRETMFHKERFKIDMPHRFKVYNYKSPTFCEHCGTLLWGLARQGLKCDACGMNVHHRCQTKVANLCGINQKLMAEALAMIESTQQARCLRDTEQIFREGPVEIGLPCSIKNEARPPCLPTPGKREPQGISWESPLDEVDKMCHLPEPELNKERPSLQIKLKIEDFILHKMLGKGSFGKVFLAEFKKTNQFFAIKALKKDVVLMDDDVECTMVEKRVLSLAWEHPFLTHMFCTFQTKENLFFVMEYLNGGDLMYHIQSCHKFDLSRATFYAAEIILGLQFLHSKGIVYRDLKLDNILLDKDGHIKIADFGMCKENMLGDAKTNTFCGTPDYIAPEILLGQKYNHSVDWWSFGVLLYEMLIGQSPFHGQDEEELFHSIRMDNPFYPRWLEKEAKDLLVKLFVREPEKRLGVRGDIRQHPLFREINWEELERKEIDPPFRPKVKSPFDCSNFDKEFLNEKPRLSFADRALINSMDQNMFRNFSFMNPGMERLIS
# Chain of Protein kinase C beta type (P05771 whole entry): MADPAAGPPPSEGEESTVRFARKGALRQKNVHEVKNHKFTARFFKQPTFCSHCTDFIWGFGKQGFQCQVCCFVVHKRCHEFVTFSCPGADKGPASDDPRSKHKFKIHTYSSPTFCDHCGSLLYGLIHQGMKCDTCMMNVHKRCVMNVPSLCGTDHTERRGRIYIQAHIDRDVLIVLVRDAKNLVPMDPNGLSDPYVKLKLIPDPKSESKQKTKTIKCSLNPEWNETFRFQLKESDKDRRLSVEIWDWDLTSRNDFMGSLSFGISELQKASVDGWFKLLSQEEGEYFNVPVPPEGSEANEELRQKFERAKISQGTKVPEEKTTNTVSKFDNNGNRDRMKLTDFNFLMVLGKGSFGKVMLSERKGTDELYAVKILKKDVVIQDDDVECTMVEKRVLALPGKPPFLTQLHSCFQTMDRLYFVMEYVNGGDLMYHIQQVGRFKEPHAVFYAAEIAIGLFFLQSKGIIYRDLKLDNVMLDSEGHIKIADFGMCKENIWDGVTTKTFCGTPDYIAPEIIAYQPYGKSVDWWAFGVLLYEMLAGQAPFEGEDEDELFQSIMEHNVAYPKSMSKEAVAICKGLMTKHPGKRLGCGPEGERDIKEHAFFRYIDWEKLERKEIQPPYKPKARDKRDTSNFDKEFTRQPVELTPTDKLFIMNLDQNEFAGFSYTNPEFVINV
compound,measurement,setting,value
Cn1cc(C2=C(c3nc(N4CCNCC4)nc4ccccc34)C(=O)NC2=O)c2ccccc21,AUC,Rattus norvegicus [1],1729 ng·h/g
same,IC50,[2],1.4 nM
same,IC50,[3],99 nM
same,clearance,[4],25 mL/min/kg
same,IC50,[5],378 nM
same,AUC/dose,Rattus norvegicus [6],161 ng·h/mL
same,IC50,[7],3.8 nM
same,Vd,[8],10 L/kg
same,IC50,[9],1.4 nM
same,logP,[10],2.3
same,solubility,[11],195 µg/mL
same,efflux ratio,P-gp (human),64.4
same,AUC/dose,Rattus norvegicus [12],671 ng·h/mL
same,IC50,[13],3.3 nM
same,bioavailability,[14],24%
same,microsomal CLint,[15],112 µL/min/mg
same,Tmax,[16],0.5 h
same,IC50,[17],1 nM
same,logD,[18],0.6
same,half-life,[19],4.6 h
same,IC50,[20],1.2 nM
